Data from patent US9718788B2, “Heteroaryl compounds useful as inhibitors of E1 activating enzymes” (MILLENNIUM PHARMACEUTICALS, INC., priority 2006, dated 2017).

Molecular target: T1, recombinant human NAE enzyme (Homo sapiens, UniProt Q8TBC4)
T1 construct: His (N); made in house; host or cells: Sf9 insect cells (baculovirus, Bac-to-Bac)
T1 sequence (Q8TBC4 1-463): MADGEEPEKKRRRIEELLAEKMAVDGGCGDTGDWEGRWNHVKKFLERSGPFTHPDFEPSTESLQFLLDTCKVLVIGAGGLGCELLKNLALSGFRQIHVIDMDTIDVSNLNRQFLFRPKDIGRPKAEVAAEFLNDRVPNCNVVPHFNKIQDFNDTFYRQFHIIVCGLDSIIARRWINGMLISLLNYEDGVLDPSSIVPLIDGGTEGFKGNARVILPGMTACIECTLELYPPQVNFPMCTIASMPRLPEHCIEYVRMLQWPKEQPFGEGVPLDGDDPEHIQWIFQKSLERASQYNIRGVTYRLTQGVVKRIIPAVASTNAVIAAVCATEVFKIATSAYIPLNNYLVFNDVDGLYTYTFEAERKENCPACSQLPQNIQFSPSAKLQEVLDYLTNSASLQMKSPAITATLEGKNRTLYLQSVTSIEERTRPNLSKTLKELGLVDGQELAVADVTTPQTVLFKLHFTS
T1 sequence (Q13564 1-534 partner): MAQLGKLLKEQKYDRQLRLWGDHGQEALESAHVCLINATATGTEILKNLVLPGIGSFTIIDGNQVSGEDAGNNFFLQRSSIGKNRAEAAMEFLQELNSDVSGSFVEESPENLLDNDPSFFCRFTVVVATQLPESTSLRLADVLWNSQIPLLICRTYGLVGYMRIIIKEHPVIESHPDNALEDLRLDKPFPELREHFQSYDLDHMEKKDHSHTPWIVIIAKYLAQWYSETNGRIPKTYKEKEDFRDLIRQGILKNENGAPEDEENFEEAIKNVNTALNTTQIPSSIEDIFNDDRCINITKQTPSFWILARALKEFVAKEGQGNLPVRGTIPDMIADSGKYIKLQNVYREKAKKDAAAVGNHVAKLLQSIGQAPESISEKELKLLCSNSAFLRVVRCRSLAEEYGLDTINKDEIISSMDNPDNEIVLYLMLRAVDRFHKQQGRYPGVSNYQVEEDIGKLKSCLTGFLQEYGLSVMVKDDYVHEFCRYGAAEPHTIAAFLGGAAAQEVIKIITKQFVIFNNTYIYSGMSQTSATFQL
Assay: Nedd8-Activating Enzyme (NAE) HTRF Assay
Type: biochemical
Conditions: 20 μM ATP
In short: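 Recombinant human NAE (NAEα/His-NAEβ from Sf9 cells) at 0.20 nM with 20 μM ATP, 0.01 μM Ubc12-GST and 0.075 μM Nedd8-Flag in HEPES pH 7.5, 105 min at 24° C. EDTA stop; Eu-anti-FLAG/APC-anti-GST HTRF read after 1 h.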

Structure (SMILES)	IC50 (bound given in nM)	IC50 (bound given in μM)
NS(=O)(=O)OC[C@@H]1C[C@@H](Nc2ncnc3nc(-c4ccc(OCc5ccccc5)cc4)[nH]c23)C[C@@H]1O [Compound I-102, [(1S,2S,4R)-4-({8-[4-(benzyloxy)phenyl]-7H-purin-6-yl}amino)-2-hydroxycyclopentyl]methyl sulfamate]	≤ 500 nM	
CN(C)c1ccc(-c2nc3ncnc(O[C@@H]4C[C@@H](COS(N)(=O)=O)[C@@H](O)C4)c3[nH]2)c2ccccc12 [Compound I-103, [(1S,2S,4R)-4-({8-[4-(dimethylamino)-1-naphthyl]-7H-purin-6-yl}oxy)-2-hydroxycyclopentyl]methyl sulfamate]	≤ 500 nM	
OC[C@@H]1C[C@@H](Nc2ncnc3[nH]c(-c4cccc5c4CCCC5)nc23)C[C@@H]1O [Compound I-110, (1S,2S,4R)-2-(hydroxymethyl)-4-{[8-(5,6,7,8-tetrahydronaphthalen-1-yl)-9H-purin-6-yl]-amino}cyclopentanol]	> 500 nM	< 10000 nM
NS(=O)(=O)OC[C@@H]1C[C@@H](Nc2ncnc3[nH]c(-c4ccc(Cl)cc4)nc23)C[C@@H]1O [Compound I-111, ((1S,2S,4R)-4-{[8-(4-chlorophenyl)-9H-purin-6-yl]amino}-2-hydroxycyclopentyl)methyl sulfamate]	≤ 500 nM	
NS(=O)(=O)OC[C@@H]1C[C@@H](Oc2ncnc3nc(-c4cncc5ccccc45)[nH]c23)C[C@@H]1O [Compound I-112, {(1S,2S,4R)-2-hydroxy-4-[(8-isoquinolin-4-yl-7H-purin-6-yl)oxy]cyclopentyl}methyl sulfamate]	≤ 500 nM	
NS(=O)(=O)OC[C@H]1C[C@@H](Nc2nc(N[C@H]3CCc4ccccc43)ncc2F)[C@H](O)[C@@H]1O [Compound I-113, [(1R,2R,3S,4R)-4-({2-[(1S)-2,3-dihydro-1H-inden-1-ylamino]-5-fluoropyrimidin-4-yl}-amino)-2,3-dihydroxycyclopentyl]methyl sulfamate]	> 500 nM	< 10000 nM
NS(=O)(=O)OC[C@@H]1C[C@@H](Oc2cc(-c3ccccc3)ncn2)C[C@@H]1O [Compound I-114, {(1S,2S,4R)-2-hydroxy-4-[(6-phenylpyrimidin-4-yl)oxy]cyclopentyl}methyl sulfamate]	> 500 nM	< 10000 nM
CO[C@H]1Cc2ccccc2[C@H]1Nc1cc(O[C@@H]2C[C@@H](COS(N)(=O)=O)[C@@H](O)C2)ncn1 [Compound I-115, {(1S,2S,4R)-2-hydroxy-4-[(6-{[(1R,2S)-2-methoxy-2,3-dihydro-1H-inden-1-yl]amino}pyrimidin-4-yl)oxy]cyclopentyl}methyl sulfamate]	≤ 500 nM	
NS(=O)(=O)OC[C@@H]1C[C@@H](Nc2ncnc3nc(-c4cccc5c4OCC5)[nH]c23)C[C@@H]1O [Compound I-117, ((1S,2S,4R)-4-{[8-(2,3-dihydro-1-benzofuran-7-yl)-7H-purin-6-yl]amino}-2-hydroxycyclopentyl)methyl sulfamate]	≤ 500 nM	
NS(=O)(=O)OC[C@H]1C[C@@H](Nc2cc(Nc3cccc4c3CCCC4)ncn2)[C@H](O)[C@@H]1O [Compound I-118, ((1R,2R,3S,4R)-2,3-dihydroxy-4-{[6-(5,6,7,8-tetrahydronaphthalen-1-ylamino)pyrimidin-4-yl]amino}cyclopentyl)methyl sulfamate]	≤ 500 nM	
NS(=O)(=O)OC[C@@H]1C[C@@H](Oc2cc(OCc3cccc4ccccc34)ncn2)C[C@@H]1O [Compound I-119, ((1S,2S,4R)-2-hydroxy-4-{[6-(1-naphthylmethoxy)pyrimidin-4-yl]oxy}cyclopentyl)methyl sulfamate]	> 500 nM	< 10000 nM
NS(=O)(=O)OC[C@@H]1C[C@@H](Oc2cc(N3Cc4ccccc4C3)ncn2)C[C@@H]1O [Compound I-120, ((1S,2S,4R)-4-{[6-(1,3-dihydro-2H-isoindol-2-yl)pyrimidin-4-yl]oxy}-2-hydroxycyclopentyl)methyl sulfamate]	> 500 nM	< 10000 nM
NS(=O)(=O)OC[C@@H]1C[C@@H](Nc2ncnc3[nH]c(C4CCCc5ccccc54)nc23)C[C@@H]1O (stereo partly drawn) [Compound I-121, ((1S,2S,4R)-2-hydroxy-4-{[8-(1,2,3,4-tetrahydronaphthalen-1-yl)-9H-purin-6-yl]amino}cyclopentyl)methyl sulfamate]	≤ 500 nM	
NS(=O)(=O)OC[C@@H]1C[C@@H](Nc2ncnc3[nH]c(-c4ccccc4C(F)(F)F)nc23)C[C@@H]1O [Compound I-122, [(1S,2S,4R)-2-hydroxy-4-({8-[2-(trifluoromethyl)phenyl]-9H-purin-6-yl}amino)cyclopentyl]methyl sulfamate]	≤ 500 nM	
CN(c1ncnc2c1nc(-c1ccccc1)n2C)[C@@H]1C[C@@H](COS(N)(=O)=O)[C@@H](O)C1 [Compound I-123, {(1S,2S,4R)-2-hydroxy-4-[methyl(9-methyl-8-phenyl-9H-purin-6-yl)amino]cyclopentyl}-methyl sulfamate]	> 500 nM	< 10000 nM
CC1(C)C[C@H](Nc2cc(O[C@@H]3C[C@@H](COS(N)(=O)=O)[C@@H](O)C3)ncn2)c2ccccc21 [Compound I-124, {(1S,2S,4R)-4-[(6-{[(1S)-3,3-dimethyl-2,3-dihydro-1H-inden-1-yl]amino}pyrimidin-4-yl)oxy]-2-hydroxycyclopentyl}methyl sulfamate]	≤ 500 nM	
CO[C@H]1Cc2ccccc2[C@H]1Nc1ncnc(N[C@@H]2C[C@@H](COS(N)(=O)=O)[C@@H](O)C2)n1 [Compound I-125, {(1S,2S,4R)-2-hydroxy-4-[(4-{[(1R,2S)-2-methoxy-2,3-dihydro-1H-inden-1-yl]amino}-1,3,5-triazin-2-yl)amino]cyclopentyl}methyl sulfamate]	≤ 500 nM	
NS(=O)(=O)OC[C@@H]1C[C@@H](Nc2ncnc3[nH]c(-c4cccc5c4CCCC5)nc23)C[C@@H]1O [Compound I-126, ((1S,2S,4R)-2-hydroxy-4-{[8-(5,6,7,8-tetrahydronaphthalen-1-yl)-9H-purin-6-yl]amino}cyclopentyl)methyl sulfamate]	≤ 500 nM	
NS(=O)(=O)OC[C@@H]1C[C@@H](Oc2cc(NC3CCCC3)ncn2)C[C@@H]1O [Compound I-127, ((1S,2S,4R)-4-{[6-(cyclopentylamino)pyrimidin-4-yl]oxy}-2-hydroxycyclopentyl)methyl sulfamate]	> 500 nM	< 10000 nM
NS(=O)(=O)OC[C@@H]1C[C@@H](Nc2ncnc3[nH]c(C4CCCCC4)nc23)C[C@@H]1O [Compound I-128, {(1S,2S,4R)-4-[(8-cyclohexyl-9H-purin-6-yl)amino]-2-hydroxycyclopentyl}methyl sulfamate]	≤ 500 nM	
NS(=O)(=O)OC[C@@H]1C[C@@H](Oc2ncnc3nc(-c4cnn(Cc5ccccc5)c4)[nH]c23)C[C@@H]1O [Compound I-129, ((1S,2S,4R)-4-{[8-(1-benzyl-1H-pyrazol-4-yl)-7H-purin-6-yl]oxy}-2-hydroxycyclopentyl)methyl sulfamate]	≤ 500 nM	
Cn1c(-c2ccccc2)nc2c(N[C@@H]3C[C@@H](COS(N)(=O)=O)[C@@H](O)C3)ncnc21 [Compound I-130, {(1S,2S,4R)-2-hydroxy-4-[(9-methyl-8-phenyl-9H-purin-6-yl)amino]cyclopentyl}methyl sulfamate]	≤ 500 nM	
CC(C)(C)c1nc2c(N[C@@H]3C[C@@H](COS(N)(=O)=O)[C@@H](O)C3)ncnc2[nH]1 [Compound I-131, {(1S,2S,4R)-4-[(8-tert-butyl-9H-purin-6-yl)amino]-2-hydroxycyclopentyl}methyl sulfamate]	≤ 500 nM	
NS(=O)(=O)OC[C@@H]1C[C@@H](Oc2cc(Cc3ccccc3)ncn2)C[C@@H]1O [Compound I-132, {(1S,2S,4R)-4-[(6-benzylpyrimidin-4-yl)oxy]-2-hydroxycyclopentyl}methyl sulfamate]	> 500 nM	< 10000 nM
COc1ccccc1-c1nc2c(N[C@@H]3C[C@@H](COS(N)(=O)=O)[C@@H](O)C3)ncnc2[nH]1 [Compound I-133, ((1S,2S,4R)-2-hydroxy-4-{[8-(2-methoxyphenyl)-9H-purin-6-yl]amino}cyclopentyl)methyl sulfamate]	≤ 500 nM	
CC1(C)C[C@H](Nc2ncnc(N[C@@H]3C[C@@H](COS(N)(=O)=O)[C@@H](O)C3)n2)c2ccccc21 [Compound I-134, {(1S,2S,4R)-4-[(4-{[(1S)-3,3-dimethyl-2,3-dihydro-1H-inden-1-yl]amino}-1,3,5-triazin-2-yl)amino]-2-hydroxycyclopentyl}methyl sulfamate]	≤ 500 nM	
